Data from patent publication US20100075972A1, “AGENT FOR TREATMENT OF MULTIPLE SCLEROSIS” (Kowa Co., Ltd., priority 2007, published 2010).

Assays:
F4/80 mRNA = F4/80 mRNA expression in the spinal cord of experimental autoimmune encephalomyelitis mice (real-time PCR); type: in vivo; conditions: day 42, spinal cord of EAE mice of Example 1, corrected by ribosomal RNA
From the text: (§1) On day 42, the spinal cord was removed from the mice employed in Example 1, and total RNA was recovered by use of ISOGEN (Nippon Gene Co., Ltd.). For comparison, similarly, the spinal cord was extirpated from unsensitized normal mice, and was employed for the below-described quantitative determination. cDNA was synthesized from the thus-obtained total RNA by use of a reverse transcriptase, and the amount of mRNA of the following gene (F4/80, TNF-α, IL-1β, or IL-6) was quantitatively determined by means of an ABI PRISM 7900HT system (Applied Biosystems) through real-time PCR employing a TaqMan probe according to the protocol of Applied Biosystems. Meanwhile, the amount of ribosomal RNA was determined, and employed for correction.

IL-6 mRNA = IL-6 mRNA expression in the spinal cord of experimental autoimmune encephalomyelitis mice (real-time PCR); type: in vivo; conditions: day 42, spinal cord of EAE mice of Example 1, corrected by ribosomal RNA
From the text: as §1

IL-1β mRNA = IL-1β mRNA expression in the spinal cord of experimental autoimmune encephalomyelitis mice (real-time PCR); type: in vivo; conditions: day 42, spinal cord of EAE mice of Example 1, corrected by ribosomal RNA
From the text: as §1

TNF-α mRNA = TNF-α mRNA expression in the spinal cord of experimental autoimmune encephalomyelitis mice (real-time PCR); type: in vivo; conditions: day 42, spinal cord of EAE mice of Example 1, corrected by ribosomal RNA
From the text: as §1

[1] = system: experimental autoimmune encephalomyelitis model; experiment: experimental autoimmune encephalomyelitis mouse model, symptom scores; type: in vivo, C57BL/6 mice
Experimental: The experimental autoimmune encephalomyelitis model is established by immunizing a mouse with myelin protein (i.e., myelin-sheath-constituting protein), thereby causing T-cell-mediated autoimmune inflammation in the central nervous system.
Seven-week-old female C57BL/6 mice (Charles River Laboratories Japan, Inc.) were employed. A sensitizing emulsion for causing the mice to develop experimental autoimmune encephalomyelitis was prepared by mixing myelin oligodendrocyte glycoprotein (MOG) 35-55 (Alexis Biochemical) with an equiamount of complete Freund's adjuvant H37Ra (DIFCO) so that the MOG concentration was 2 mg/mL, followed by homogenization under ice cooling by means of Handy Micro Homogenizer (product of Microtec Co., Ltd.). The thus-prepared emulsion (0.1 mL) was intradermally administered to each mouse at its tail base for initial sensitization. On the same day, pertussis toxin dissolved in saline (500 ng/0.3 mL) was intravenously injected to the tail. Two days after initial sensitization, in a manner similar to that described above, pertussis toxin (500 ng/0.3 mL) was intravenously injected for booster. Drug A was orally administered (30 mg/kg) twice a day in the morning (9:00 to 11:00) and in the evening (15:30 to 17:30) from the day following the initial sensitization to 42 days after sensitization.
The drugs were evaluated from the condition of experimentally created autoimmune encephalomyelitis according to the following ratings:
score 1: limp tail or abnormal gait;
score 2: limp tail and abnormal gait;
score 3: paralysis of one limb;
score 4: paralysis of two or more limbs; and
In FIGS. 1 and 2 and Table 1, the data for each group (10 mice) are represented by average value±standard error (non-parametric Dunnett's test).

[2] = system: interleukin-1β production; conditions: as disclosed in WO 99/25697; cited from earlier work
[3] = oral administration of drug A 30 mg/kg twice a day

With `CSc1ccc(-c2nn(Cc3ccccc3)c(=O)cc2-c2ccc(Cl)cc2)cc1` [Drug A, 2-Benzyl-5-(4-chlorophenyl)-6-[4-(methylthio)phenyl]-2H-pyridazin-3-one] the “amount of expression of mRNA of F4/80 in spinal cord” value (F4/80 mRNA) was “found to be reduced”, the “expression of IL-6 mRNA in spinal cord” value (IL-6 mRNA) was “found to be reduced” and the “expression of IL-1β mRNA in spinal cord” value (IL-1β mRNA) was “found to be reduced”. The “expression of TNF-α mRNA in spinal cord” value (TNF-α mRNA) was “found to be reduced”, the “Incidence rate, symptoms corresponding to score 2 or worse” value ([1]; EAE mice, 10 per group, Drug A 30 mg/kg orally twice a day to day 42, IFN-β 10,000 IU/individual subcutaneously every other day) was 8/10 and the “death case during the experiment (score 5)” value ([1]; EAE mice, 42 days after sensitization, Drug A 30 mg/kg orally twice a day, IFN-β 10,000 IU/individual s.c. every other day) was “no death case was observed”. The “Days required for onset, symptoms corresponding to score 2 or worse” value ([1]; EAE mice, average ± standard error, Drug A 30 mg/kg orally twice a day, IFN-β 10,000 IU/individual subcutaneously every other day) was 22.4 ± 1.5 days, the “experimental autoimmune encephalomyelitis scores (FIG. 1)” value [1, 3] was “ameliorated to almost the same extent as in the case of IFN-β” and the “maximum score of experimental autoimmune encephalomyelitis symptoms (FIG. 2)” value [1, 3] was “tended to be reduced”. For the same compound, the “onset of symptoms corresponding to score 2 or worse (in words)” value [1, 3] was “tended to be delayed” and the “interleukin-1β production inhibitory effect” value [2] was “excellent”.
